Reference: patent publication US9845326B2, “Substituted 3,4-dihydropyrrolo[1,2-A]pyrazines as beta-secretase (BACE) inhibitors” (priority 2011, dated 2017)

Tests used:
BACE1 = BACE1 (Homo sapiens, UniProt P56817); experiment: Biochemical FRET based assay; details: Biochemical FRET based assay pIC50, recombinant BACE1 1 μg/ml, 120 min, room temperature, pH 5.0
Text: This assay is a Fluorescence Resonance Energy Transfer Assay (FRET) based assay. The substrate for this assay is an APP derived 13 amino acids peptide that contains the ‘Swedish’ Lys-Met/Asn-Leu mutation of the amyloid precursor protein (APP) β-secretase cleavage site. This substrate also contains two fluorophores: (7-methoxy-coumarin-4-yl) acetic acid (Mca) is a fluorescent donor with excitation wavelength at 320 nm and emission at 405 nm and 2,4-Dinitrophenyl (Dnp) is a proprietary quencher acceptor. […] Upon cleavage by BACE1, the fluorophore Mca is separated from the quenching group Dnp, restoring the full fluorescence yield of the donor. The increase in fluorescence is linearly related to the rate of proteolysis (Koike H et al. J. Biochem. 1999, 126, 235-242).
Briefly in a 384-well format recombinant BACE1 protein in a final concentration of 1 μg/ml is incubated for 120 min at room temperature with 10 μm substrate in incubation buffer (40 mM Citrate buffer pH 5.0, 0.04% PEG, 4% DMSO) in the absence or presence of compound. Next the amount of proteolysis is directly measured by fluorescence measurement at T=0 and T=120 (excitation at 320 nm and emission at 405 nm). Results are expressed in RFU, as difference between T120 and T0
From this an IC50 value (inhibitory concentration causing 50% inhibition of activity) can be obtained.

Aβ42 [1] = experiment: Cellular αlisa assay in SKNBE2 cells, Aβ42; type: cell-based, human; details: Homo sapiens, SKNBE2, 18 h, SKNBE2 cells expressing hAPP695, 18 hours incubation; read-out: Cellular αlisa assay in SKNBE2 cells Aβ42 pIC50 (converted)
Description: (§1) In two αlisa assays the levels of Aβtotal and Aβ42 produced and secreted into the medium of human neuroblastoma SKNBE2 cells are quantified. The assay is based on the human neuroblastoma SKNBE2 expressing the wild type Amyloid Precursor Protein (hAPP695). The compounds are diluted and added to these cells, incubated for 18 hours and then measurements of Aβ42 and Aβtotal are taken. Aβtotal and Aβ42 are measured by sandwich αlisa. αlisa is a sandwich assay using biotinylated antibody AbN/25 attached to streptavidin coated beads and antibody Ab4G8 or cAb42/26 conjugated acceptor beads for the detection of Aβtotal and Aβ42 respectively. In the presence of Aβtotal or Aβ42, the beads come into close proximity. The excitation of the Donor beads provokes the release of singlet oxygen molecules that triggers a cascade of energy transfer in the Acceptor beads, resulting in light emission. Light emission is measured after 1 hour incubation (excitation at […] and emission at 615 nm).
(§2) From this an […] value (inhibitory concentration causing 50% inhibition of activity) can be obtained.

Aβtotal [2] = experiment: Cellular αlisa assay in SKNBE2 cells, Aβtotal; type: cell-based, human; details: Homo sapiens, SKNBE2, 18 h, SKNBE2 cells expressing hAPP695, 18 hours incubation; read-out: Cellular αlisa assay in SKNBE2 cells Aβtotal pIC50 (converted)
Description: as §1, §2

Aβ42 [3] = experiment: In vivo efficacy: brain Aβ42 lowering (ELISA); set-up: species or system mouse; details: 30 mg/kg, p.o., 4 h. after administration, soluble fraction
Text: (§3) To determine whether acute administration of an Aβ42 peptide lowering agent would reduce Aβ peptide levels in vivo, non-transgenic rodents, e.g. mice or rats were used. Animals treated with the Aβ peptide lowering agent were examined and compared to those untreated or treated with vehicle and brain levels of soluble Aβ42 and total Aβ were quantitated by standard techniques, for example, using ELISA. Treatment periods varied from hours (h) to days and were adjusted based on the results of the Aβ42 lowering once a time course of onset of effect could be established.
(§4) A typical protocol for measuring Aβ42 lowering in vivo is shown but it is only one of many variations that could be used to optimize the levels of detectable Aβ. […] After a certain time, usually 2 or 4 h (as indicated in Table 7), the animals were sacrificed and Aβ42 levels were analysed.
(§5) Blood was collected by decapitation and exsanguinations in EDTA-treated collection tubes. […] The left hemisphere was stored at −18° C. for quantitative analysis of test compound levels. […]
(§6) Mouse brains from non-transgenic animals were resuspended in 8 volumes of 0.4% DEA (diethylamine)/50 mM NaCl containing protease inhibitors (Roche-11873580001 or 04693159001) per gram of tissue, e.g. for 0.158 g brain, add 1.264 ml of 0.4% DEA. […] Nine parts of supernatant were neutralized with 1 part 0.5 M Tris-HCl pH 6.8 and used to quantify Aβtotal and Aβ42. […]

Aβtotal [4] = experiment: In vivo efficacy: brain Aβtotal lowering (ELISA); set-up: species or system mouse; details: 30 mg/kg, p.o., 4 h. after administration, soluble fraction
Text: as §3, §4, §5, §6

Chain of BACE1 (P56817 46-501): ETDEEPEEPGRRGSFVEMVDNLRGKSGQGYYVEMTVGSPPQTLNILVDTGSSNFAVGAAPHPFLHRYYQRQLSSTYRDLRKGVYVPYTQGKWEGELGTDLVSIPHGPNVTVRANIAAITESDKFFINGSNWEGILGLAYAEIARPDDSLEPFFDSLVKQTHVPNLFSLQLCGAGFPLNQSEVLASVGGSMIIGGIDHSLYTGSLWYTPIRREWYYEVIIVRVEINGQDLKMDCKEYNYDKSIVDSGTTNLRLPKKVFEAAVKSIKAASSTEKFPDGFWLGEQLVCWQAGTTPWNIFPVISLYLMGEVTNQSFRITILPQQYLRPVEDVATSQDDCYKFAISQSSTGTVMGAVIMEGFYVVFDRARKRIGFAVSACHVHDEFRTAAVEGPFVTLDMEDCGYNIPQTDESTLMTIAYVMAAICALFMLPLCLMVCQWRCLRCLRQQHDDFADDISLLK

With `C[C@@]1(c2cc(NC(=O)c3ccc(F)cn3)ccc2F)Cn2cc(F)cc2C(N)=N1` [Compound 7, (R)-5-Fluoro-pyridine-2-carboxylic acid [3-(1-amino-7-fluoro-3-methyl-3,4-dihydro-pyrrolo[1,2-a]pyrazin-3-yl)-4-fluoro-phenyl]-amide] the IC50 (BACE1) was 41.7 nM, the IC50 (Aβ42 [1]) was 6.61 nM and the IC50 (Aβtotal [2]) was 5.62 nM. For the same molecule, the “Aβ42 (%Ctrl)_Mean” value (Aβ42 [3]) was 73 %Ctrl and the “Aβtotal (%Ctrl)_Mean” value (Aβtotal [4]) was 99 %Ctrl.
